This is an account of results in article PMC8350397, “GSK137, a potent small-molecule BCL6 inhibitor with in vivo activity, suppresses antibody responses in mice” (The Journal of Biological Chemistry, 2021).

The structures appear in SMILES notation. Converted amounts (≈) assume the structure as drawn.

Data set [1] has as its target T1, human BCL6 BTB-POZ domain (nuclear receptor co-repressor 1 peptide) (Homo sapiens, UniProt P41182, C67R/C84N/C8Q).
T1 construct: BCL6-Flag-6H-Avi (5-129) C8Q, C67R, C84N proteins; Flag (C); 6H (His6) (C); made in house; host or cells: E. coli
Kind of data set: BCL6 TR-FRET assay, NCOR peptide displacement. Format: binding. The conditions noted are these: NCOR1 peptide, read-out: pIC50 Human TR-FRET nuclear receptor co-repressor 1 (converted). As for the experimental part:
(§1) Human, mouse and rat BCL6-Flag-6H-Avi (5-129) C8Q, C67R, C84N proteins were expressed in E. coli according to standard procedures and purified on Ni-NTA, followed by ion exchange on a Source 30Q column and size exclusion on an Superdex 200 column in a buffer of 20 mM Tris, 250 mM NaCl, 5 mM DTT, 5% glycerol, pH 8.5. All protein purities were estimated to be >90% by SDS-PAGE and the expected masses were confirmed by MS analysis. For TR-FRET assay protein was enzymatically biotinylated by treatment of protein at 100 µM with a 2 fold molar excess of biotin in the presence of 2 mM ATP and 1 µM BirA enzyme in a buffer of 50 mM bicine pH 8.3, 10 mM MgCl2 at 30 °C for 1 hour, followed by extensivedialysis against 50 mM Tris-Cl pH 8.0, 100 mM NaCl, 1 mM DTT using a 3.5 kDa cut-off membrane. Biotinylation was confirmed by MS analysis and concentration was determined by Bradford assay, after which protein was stored in aliquots at -80 °C.
(§2) Acceptor-labelled SMRT peptide H2N-[…](D2)-OH was dissolved in water by mass to give a 500 µM stock solution which was stored at -20 °C. Acceptor-labelled NCOR peptide H2N-[…](Alexa Fluor 647)-OH and acceptor-labelled BCOR peptide H2N-[…](Alexa Fluor 647)-OH were dissolved to a nominal concentration of 1 mM in DMSO, and stock solution concentration was determined by absorbance at 650 nm using an extinction coefficient of 270,000 M-1cm^-1. […]

The nature of data set [2]: GSK in-house kinetic solubility assay (CAD). Type of data set: physicochemical. The settings on record: kinetic from dmso stock, charged aerosol detector.
Data set [3] in a line: Chromatographic log D / property forecast index. Format: physicochemical.
The target in the next data set is T2, rat BCL6 and SMRT (Rattus norvegicus, UniProt B2GUV8, C67R/C84N/C8Q).
T2 construct: BCL6-Flag-6H-Avi (5-129) C8Q, C67R, C84N proteins; Flag (C); 6H (His6) (C); made in house; host or cells: E. coli
Kind of data set: BCL6 TR-FRET assay, rat BCL6 and SMRT. Format: binding. As for the experimental part: as §1, §2
For orientation: In TR-FRET formats the signal depends on donor and acceptor labels being close together.

The target of data set [4] is T3, human BCL6 BTB-POZ domain (BCL6 co-repressor peptide) (Homo sapiens, UniProt P41182, C67R/C84N/C8Q).
T3 construct: BCL6-Flag-6H-Avi (5-129) C8Q, C67R, C84N proteins; Flag (C); 6H (His6) (C); made in house; host or cells: E. coli
Briefly: BCL6 TR-FRET assay, BCOR peptide displacement. The settings on record: read-out: pIC50 Human TR-FRET BCL6 co-repressor (converted). Format: binding. As for the experimental part: as §1, §2

A further data set can be described thus: Permeability (Papp). Type of data set: in vitro ADME. The conditions noted are these: not told.
The target of data set [5] is human serum albumin (HSA) (Homo sapiens, UniProt P02768). Kind of data set: Binding to human serum albumin. Type of data set: in vitro ADME.
human serum albumin (HSA), sequence (P02768 25-609): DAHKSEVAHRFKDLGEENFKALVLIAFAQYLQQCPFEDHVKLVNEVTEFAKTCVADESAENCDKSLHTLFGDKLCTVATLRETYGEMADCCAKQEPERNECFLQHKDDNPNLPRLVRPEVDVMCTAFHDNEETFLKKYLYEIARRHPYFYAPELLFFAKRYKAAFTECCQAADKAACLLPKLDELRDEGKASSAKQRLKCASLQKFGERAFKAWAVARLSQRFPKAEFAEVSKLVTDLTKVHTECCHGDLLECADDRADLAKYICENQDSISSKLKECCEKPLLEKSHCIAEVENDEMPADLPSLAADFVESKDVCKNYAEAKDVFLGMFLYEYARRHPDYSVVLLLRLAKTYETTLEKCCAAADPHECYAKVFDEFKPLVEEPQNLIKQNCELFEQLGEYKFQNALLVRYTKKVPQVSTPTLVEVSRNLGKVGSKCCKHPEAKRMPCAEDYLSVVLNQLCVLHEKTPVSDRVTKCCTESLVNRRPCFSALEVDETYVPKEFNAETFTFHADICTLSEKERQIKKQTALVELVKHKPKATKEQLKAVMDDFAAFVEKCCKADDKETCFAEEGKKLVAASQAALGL
In another data set the target is T4, mouse BCL6 and SMRT (Mus musculus, UniProt P41183, C67R/C84N/C8Q).
T4 construct: BCL6-Flag-6H-Avi (5-129) C8Q, C67R, C84N proteins; Flag (C); 6H (His6) (C); made in house; host or cells: E. coli
Kind of data set: BCL6 TR-FRET assay, mouse BCL6 and SMRT. Type of data set: binding. The method, then:
as §1, §2

The nature of data set [6]: Pharmacokinetics in blood during the immunization study. The conditions noted are these: male, CD1, mouse, whole blood, po; for AUC: daily steady state, from simulated profiles; for Tmax: day 8; for Cmax: day 8, blood. Format: in vivo. As for the experimental part:
Male CD1 mice (30–40 g, 8–9 weeks of age) were randomized into study treatment groups, housed individually and allowed to acclimatize under standard laboratory conditions for a minimum of 5 days prior to commencement of the study. Mice received food and water ad libitum. The experiment was performed in a certified dedicated in vivo experimental laboratory at the GlaxoSmithKline Medicines Research Centre, Stevenage, United Kingdom. The four treatment groups were (1) unimmunized and untreated (naive group) (n = 4); (2) intraperitoneal vehicle (n = 13), (3) GSK137 15 mg/kg (n = 14), and (4) GSK137 30 mg/kg (n = 14). Groups (2) to (4) were given intraperitoneal immunization with TNP–KLH (100 μg) on day 0, vehicle was 1% methylcellulose in water + 0.1% sodium lauryl sulphate, and compound or vehicle was given to groups (2) to (4) by oral gavage three times per day from day −1 to day +12. Blood samples were collected by tail vein for measurement of compound, IgM and IgG levels on days 0, 5, 8, and 12 ahead of immunization/first daily dose. On day 8, blood samples were also taken (n = 7) at 0.5, 1.5, 3, 5, or 7 h after first daily dose. On day 12, spleens were collected, weighed, and placed into Dulbecco's modified Eagle's medium on wet ice for analysis by flow cytometry.
Mouse blood/water (50/50) samples were analyzed for GSK137 using an analytical method based on protein precipitation, followed by HPLC/MS–MS analysis. The lower limit of quantification for GSK137 was 1.2 ng/ml with a higher limit of quantification of 3000 ng/ml. A two-compartment PK model was used to describe the measured composite mean steady-state oral concentration–time profiles. A three times per day dose simulation was performed using the two-compartment PK model parameters generated to simulate the repeat dose concentration–time profile. All modelings were conducted in Phoenix64 (WinNonLin) version 8.1 (Pharsight).

For the molecule `Cc1ncccc1[C@H]1C[C@@H](c2cccc3nc(N)ccc23)Nc2c(F)cnn21` [GSK137, 5-((5S,7R)-3-Fluoro-7-(2-methylpyridin-3-yl)-4,5,6,7-tetrahydropyrazolo[1,5-a]pyrimidin-5-yl)quinolin-2-amine], the IC50 in data set [1] and in [4] was 25.1 nM throughout. Besides, in data set [2], the solubility was 128 µg/mL (≈ 342 µM). The chromatographic logD in data set [3] (determined chromatographically, read-out: Chrom LogD) amounted to 2.3. Moreover, the “PFI (property forecast index)” value in data set [3] (log D modified for the number of aromatic rings) was found to be 6.3. The “pIC50 Rat TR-FRET SMRT” value on rat BCL6 and SMRT came to 7.6. Further, the Papp in “Permeability (Papp)” is 8.6 ×10⁻⁶ cm/s. In data set [5], this molecule showed an HSA binding of 91%. The “pIC50 Mouse TR-FRET SMRT” value at mouse BCL6 and SMRT worked out at 7.8. In addition, the AUC was 3400 ng·h/mL in [6] (15 mg/kg orally TID) and 6810 ng·h/mL in [6] (30 mg/kg orally TID). The Tmax in data set [6] (15 mg/kg orally TID) and in data set [6] (30 mg/kg orally TID) was 30 min each time. Also, the Cmax in data set [6] (15 mg/kg orally TID) was determined as 471 ± 226 ng/mL; in [6] (30 mg/kg orally TID), 1340 ± 141 ng/mL.

The term solubility denotes the concentration that dissolves in the medium under given conditions. Lower therefore signals little dissolved substance. Usually Papp stands for the rate of passage across a membrane or cell layer, normalised by area and donor concentration. A lower Papp goes with slow passage. In general, AUC refers to concentration integrated over time. A low value points to low exposure. One may read the Tmax as the time from dosing to the highest level. As usually defined, the Cmax is the peak of the concentration-time curve.
